In publication PMC7785020, “A unique hormonal recognition feature of the human glucagon-like peptide-2 receptor” (Cell Research, 2020):
Changes are numbered by the printed parent chain. Where two headings read alike, the source gives them in different places. No end group written: not given here.

Key:
Type in all cases: cell-based
GLP-1R (WT) = GLP-1R (WT) (Homo sapiens, UniProt P43220); assay: cAMP accumulation, WT GLP-1R; set-up: expressed in transfected cells; host or cells: HEK 293T; conditions: Table S5, GLP-1R (WT), HEK 293T, 30 min, RT, mean ± SEM, n ≥ 3 in duplicate; for EC50: read-out: cAMP pEC50 (converted)
GLP-2R R242^ECL1A = target: T1, GLP-2R R242^ECL1A (Homo sapiens, UniProt O95838, R242A); assay: cAMP accumulation, R242^ECL1A; set-up: WT (1–553); expressed in transfected cells; HEK 293T (cAMP); conditions: 30 min, RT, mean ± SEM, n ≥ 3 in duplicate; for Emax: HEK-293T, read-out: cAMP Emax (% WT); for EC50: HEK 293T, read-out: cAMP pEC50 (converted)
T1 sequence (O95838 1-553 R242A): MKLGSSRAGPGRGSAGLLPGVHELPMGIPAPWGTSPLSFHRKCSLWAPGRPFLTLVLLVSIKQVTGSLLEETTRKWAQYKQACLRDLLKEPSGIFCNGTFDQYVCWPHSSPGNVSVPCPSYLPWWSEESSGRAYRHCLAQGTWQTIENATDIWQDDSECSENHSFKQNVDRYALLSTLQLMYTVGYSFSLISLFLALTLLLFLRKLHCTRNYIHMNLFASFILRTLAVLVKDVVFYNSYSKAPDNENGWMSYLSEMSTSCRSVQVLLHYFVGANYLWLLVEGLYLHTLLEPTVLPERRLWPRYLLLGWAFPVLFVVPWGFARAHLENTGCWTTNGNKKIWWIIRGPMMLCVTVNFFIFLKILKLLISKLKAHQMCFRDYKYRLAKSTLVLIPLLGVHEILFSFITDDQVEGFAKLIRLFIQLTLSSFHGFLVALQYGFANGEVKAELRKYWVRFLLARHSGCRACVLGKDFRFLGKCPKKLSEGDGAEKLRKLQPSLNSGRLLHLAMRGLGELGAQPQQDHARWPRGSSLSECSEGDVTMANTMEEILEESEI
Experimental: (§1) HEK 293T cells were cultured in Dulbecco’s Modified Eagle’s Medium (DMEM) (Gibco, Waltham, USA) supplemented with 10% (v/v) fetal bovine serum (FBS) (Gibco) and 1% (v/v) sodium pyruvate (Gibco) at 37 °C, 5% CO2 in a humidified incubator. They were seeded onto 6-well cell culture plates and transiently transfected with different GLP-2R constructs using Lipofectamine 2000 transfection reagent (Invitrogen, Carlsbad, CA, USA). After 24 h, the transfected cells were seeded onto 384-well microtiter plates (3000 cells per well) in HBSS supplemented with 5 mM HEPES, 0.1% (w/v) bovine serum albumin (BSA) and 0.5 mM 3-isobutyl-1- methylxanthine, and stimulated with increasing concentrations of GLP-2 for 30 min at RT. Eu and Ulight were diluted by cAMP detection buffer and added to the plates separately to terminate the reaction. Plates were incubated at RT for 60 min before measuring the fluorescence intensity at 620 nm and […] by an EnVision multilabel plate reader (PerkinElmer, Boston, USA).

GLP-2R (1-553) (WT) = target: T2, GLP-2R (1-553) (WT) (Homo sapiens, UniProt O95838); assay: cAMP accumulation, WT GLP-2R; conditions: 30 min, RT, mean ± SEM, n ≥ 3 in duplicate; for Emax: HEK-293T; for EC50: HEK 293T, read-out: cAMP pEC50 (converted)
T2 construct: GLP-2R (1-553) (WT); expressed in transfected cells; host or cells: HEK 293T
T2 sequence (O95838 1-553): T1 sequence (O95838 1-553 R242A) with A242R
Experimental: as §1

GLP-2R N247^ECL1A = target: T3, GLP-2R N247^ECL1A (Homo sapiens, UniProt O95838, N247A); assay: cAMP accumulation, N247^ECL1A; set-up: WT (1–553); expressed in transfected cells; HEK 293T (cAMP); conditions: Table S5, N247A, HEK 293T, 30 min, RT, mean ± SEM, n ≥ 3 in duplicate; for Emax: read-out: cAMP Emax (% WT); for EC50: read-out: cAMP pEC50 (converted)
T3 sequence (O95838 1-553 N247A): T1 sequence (O95838 1-553 R242A) with A242R, N247A
Experimental: as §1

Chain of GLP-1R (WT) (P43220 24-463, species assumed): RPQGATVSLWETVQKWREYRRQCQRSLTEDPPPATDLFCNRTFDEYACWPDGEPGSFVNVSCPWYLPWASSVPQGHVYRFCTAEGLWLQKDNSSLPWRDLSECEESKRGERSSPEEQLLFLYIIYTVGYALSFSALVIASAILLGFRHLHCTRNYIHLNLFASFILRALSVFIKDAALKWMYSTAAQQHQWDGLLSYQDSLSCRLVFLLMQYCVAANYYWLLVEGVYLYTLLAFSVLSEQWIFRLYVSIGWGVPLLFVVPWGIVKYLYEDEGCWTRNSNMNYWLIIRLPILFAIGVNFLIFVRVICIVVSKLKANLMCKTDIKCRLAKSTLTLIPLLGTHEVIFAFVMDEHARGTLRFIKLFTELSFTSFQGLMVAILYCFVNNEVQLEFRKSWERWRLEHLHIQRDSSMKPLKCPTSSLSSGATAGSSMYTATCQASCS

Row | Emax (GLP-1R (WT)) | EC50 (GLP-1R (WT)) | Emax (GLP-2R R242^ECL1A; Table S5, R242A) | EC50 (GLP-2R R242^ECL1A; Table S5, R242A) | Emax (GLP-2R (1-553) (WT); Table S5, GLP-2R (WT)) | EC50 (GLP-2R (1-553) (WT); Table S5, GLP-2R (WT)) | Emax (GLP-2R N247^ECL1A) | EC50 (GLP-2R N247^ECL1A) | Compound | Emax (GLP-2R R242^ECL1A; Table S3, R242A) | Emax (GLP-2R (1-553) (WT); Table S3, WT) | Emax (GLP-2R (1-553) (WT); Table S4, WT)
1 | 105 ± 2.4% | 0.0126 nM | 106 ± 4.9% | 25.1 nM | 103 ± 2.6% | 3.16 nM | 102 ± 2.8% | 1.26 nM | HADGSFTSDVSSYLEGQAARDFINWLIQTKITD [Chimeric GLP-1/GLP-2 (7-19)] | – | – | –
2 | 112 ± 2.8% | 3.16 nM | 102 ± 3.1% | 1.26 nM | 104 ± 1.5% | 0.126 nM | 103 ± 1.8% | 0.0501 nM | HADGSFSDEMNTILDNLAAKEFIAWLVKGRG [Chimeric GLP-1/GLP-2 (20-33)] | – | – | –
3 | 7.1 ± 3.2% | 7.94 nM | 105 ± 3.2% | 7.94 nM | 103 ± 1.8% | 0.158 nM | 102 ± 1.8% | 0.0398 nM | HAEGTFSDEMNTILDNLAARDFINWLIQTKITD [Chimeric GLP-1/GLP-2 (1-6)] | – | – | –

Row | Compound | Emax (GLP-1R (WT)) | EC50 (GLP-1R (WT)) | Emax (GLP-2R R242^ECL1A; Table S5, R242A) | EC50 (GLP-2R R242^ECL1A; Table S5, R242A) | Emax (GLP-2R (1-553) (WT); Table S5, GLP-2R (WT)) | EC50 (GLP-2R (1-553) (WT); Table S5, GLP-2R (WT)) | Emax (GLP-2R N247^ECL1A) | EC50 (GLP-2R N247^ECL1A) | Emax (GLP-2R R242^ECL1A; Table S3, R242A) | Emax (GLP-2R (1-553) (WT); Table S3, WT) | Emax (GLP-2R (1-553) (WT); Table S4, WT)
4 | CC[C@H](C)[C@H](NC(=O)[C@H](Cc1ccccc1)NC(=O)[C@H](CC(=O)O)NC(=O)[C@H](CCCNC(=N)N)NC(=O)[C@H](C)NC(=O)[C@H](C)NC(=O)[C@H](CC(C)C)NC(=O)[C@H](CC(N)=O)NC(=O)[C@H](CC(=O)O)NC(=O)[C@H](CC(C)C)NC(=O)[C@@H](NC(=O)[C@@H](NC(=O)[C@H](CC(N)=O)NC(=O)[C@H](CCSC)NC(=O)[C@H](CCC(=O)O)NC(=O)[C@H](CC(=O)O)NC(=O)[C@H](CO)NC(=O)[C@H](Cc1ccccc1)NC(=O)[C@H](CO)NC(=O)CNC(=O)[C@H](CC(=O)O)NC(=O)[C@H](C)NC(=O)[C@@H](N)Cc1c[nH]cn1)[C@@H](C)O)[C@@H](C)CC)C(=O)N[C@@H](CC(N)=O)C(=O)N[C@@H](Cc1c[nH]c2ccccc12)C(=O)N[C@@H](CC(C)C)C(=O)N[C@H](C(=O)N[C@@H](CCC(N)=O)C(=O)N[C@H](C(=O)N[C@@H](CCCCN)C(=O)N[C@H](C(=O)N[C@H](C(=O)N[C@@H](CC(=O)O)C(=O)O)[C@@H](C)O)[C@@H](C)CC)[C@@H](C)O)[C@@H](C)CC [Human GLP-2 (1–33)] | 4 ± 3.1% | 5.01 nM | 104 ± 2.3% | – | 103 ± 1.6% | – | 103 ± 1.8% | – | 107 ± 3.4% | 101 ± 2.4% | 101 ± 2.9%
